Non-standard residues stand in square brackets, D forms with d. Residues, ends and D or L forms follow the SMILES beside them.
Experiments:
[1] = molecular target: T1, full-length FOXM1 (Homo sapiens, UniProt Q08050); experiment: Biotin-peptide Pulldown with Streptavidin Magnetic Beads; type: binding; conditions: biotin-labeled peptide, cell lysates (500 µg) with endogenous or exogenous FOXM1; Western Blotting
T1 sequence (Q08050 703-763 limits assumed): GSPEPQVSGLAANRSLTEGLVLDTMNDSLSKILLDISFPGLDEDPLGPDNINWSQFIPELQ
Description: SDS-PAGE gel electrophoresis and Coomassie brilliant blue staining were performed to measure peptide stability. […] Cells were collected at different post-treatment time points (0, 1, 2, 4, 8, 16, 24, 36, 48 h). […] D The docking of peptide P22 (106–126) to the FOXM1 C-terminus (PDB ID 6OSW) was created by Rosetta FlexPepDock and PyMOL. Left, the interface of peptide-protein interaction, the peptide was shown in cyan, and the C-terminus of FOXM1 was shown according to its electrostatic potential. Right, hydrogen bonds are formed by residues at the interface of peptide and protein interaction. […] Streptavidin magnetic beads were added to lysates to pull down the biotin-peptides/protein complexes. […] M1-21mut was used as the control.

[2] = molecular target: T2, interaction between FOXM1 and PLK1 (Homo sapiens, UniProt Q08050); experiment: Co-IP in 231-Flag-FOXM1-Ind cells; type: cell-based; conditions: doxycycline 200 ng/mL 24 h, M1-21 10, 20 µM or TAT-106-126 20, 40, 80 µM for 6 h
T2 construct: expressed in transfected cells; host or cells: MDA-MB-231 stably infected with pLVX-TetOne-Flag-FOXM1b lentivirus (231-Flag-FOXM1-Ind), doxycycline-induced
T2 sequence (Q08050 1-748 isoform Q08050-2): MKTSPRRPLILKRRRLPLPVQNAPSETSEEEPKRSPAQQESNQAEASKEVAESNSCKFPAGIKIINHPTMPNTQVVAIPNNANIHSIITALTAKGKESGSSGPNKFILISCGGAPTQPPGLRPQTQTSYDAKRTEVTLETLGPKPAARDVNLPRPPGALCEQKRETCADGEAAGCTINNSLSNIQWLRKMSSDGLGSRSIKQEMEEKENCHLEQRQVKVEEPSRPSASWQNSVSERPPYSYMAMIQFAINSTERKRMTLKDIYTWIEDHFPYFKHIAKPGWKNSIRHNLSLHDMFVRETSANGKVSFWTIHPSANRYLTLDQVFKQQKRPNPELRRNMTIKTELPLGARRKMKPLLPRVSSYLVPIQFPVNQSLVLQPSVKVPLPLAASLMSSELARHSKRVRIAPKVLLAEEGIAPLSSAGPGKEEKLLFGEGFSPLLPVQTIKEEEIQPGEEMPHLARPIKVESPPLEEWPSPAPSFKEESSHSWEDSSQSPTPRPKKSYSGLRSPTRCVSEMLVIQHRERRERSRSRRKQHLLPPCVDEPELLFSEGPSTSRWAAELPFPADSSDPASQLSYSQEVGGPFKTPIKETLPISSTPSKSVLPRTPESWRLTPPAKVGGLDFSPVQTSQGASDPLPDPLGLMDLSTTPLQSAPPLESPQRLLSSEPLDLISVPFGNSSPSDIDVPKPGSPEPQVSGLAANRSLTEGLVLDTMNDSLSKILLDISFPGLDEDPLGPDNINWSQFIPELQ
Text: Number of repetitions = 3. […] Number of repetitions = 3. […] Number of repetitions = 3. […] GAPDH was used as a loading control.

[3] = molecular target: FOXM1/DNA complex (Homo sapiens, UniProt Q08050); experiment: Electrophoretic Mobility Shift Assays (EMSAs); type: biochemical; conditions: recombinant FOXM1 2 µM, FAM-labeled DNA probe 50 nM, M1-21 0.5, 1, 2 µM
Chain of FOXM1/DNA complex (Q08050 1-748 isoform Q08050-2, one chain of several): as the sequence (Q08050 1-748 isoform Q08050-2) above
Description: A FAM-labeled DNA probe (50 nM) was mixed with recombinant FOXM1 protein (2 µM) for EMSAs. […] The specificity of FOXM1/DNA complex formation was shown using 100× unlabeled DNA probes (cold probes, 5000 nM). Reactions were resolved in 4% native polyacrylamide gel electrophoresis in 0.5×TBE and visualized with a Kodak 4000 MM Imaging System (EX: 465 nm, EM: 535 nm). B The docking of P22 to FOXM1 DNA Binding domain (DBD, PDB ID 3G73) was created by Rosetta FlexPepDock and PyMOL. Left, the interface of peptide-protein interaction, peptide was shown in cyan and FOXM1 DBD was shown according to its electrostatic potential. Right, hydrogen bonds were formed by residues (blue from peptide and black from FOXM1 DBD) at the interface of peptide and protein interaction.
The double-strand DNA (dsDNA) probe was synthesized by Sangon Co., Ltd. (Shanghai, China). Protein (2 µM) was incubated with FAM-labeled dsDNA probe (50 nM) in binding buffer (20 mM Tris-Cl, 50 mM KCl, 0.5 mM EDTA, 0.2 mM DTT, 10% glycerol, pH 7.6) for 30 min on ice. […] The reactions were resolved in 4% native polyacrylamide gel electrophoresis in 0.5×TBE and visualized with Kodak 4000 MM Imaging System (Kodak, USA) (EX: 465 nm, EM: 535 nm for FAM). Sequence information is available in Supplementary Table S3.

[4] = In vivo imaging of distribution of ICG-labeled peptide; design: species or system mouse; conditions: ICG-labeled M1-21, 30 mg/kg tail vein, wild-type ICR/JCL mice; IVIS imaging 0.5-24 h
[5] = H&E staining of organs after repeated injection; type: in vivo, mouse; conditions: ICR/JCL mice, 30 mg/kg intraperitoneal once every two days for three weeks
Description: One week later, the animals’ different organs were harvested and subjected to tissue sectioning and H&E staining. Photos were taken by inverted microscope (400×, Nikon TE2000). […] The mice’s diet and activity were observed continuously for 14 days. […] Water and PBS were used as hemolysis positive and negative controls, respectively. The absorbance of the samples was measured at 540 nm and used to calculate the Hemolysis rate % = [(OD Sample - OD Negative) / (OD Positive - OD Negative)] × 100%. E Immunogenicity analysis of M1-21. […] Blood samples were collected from mice at different time points (Week 2 to Week 8) and the absorption of anti-M1-21 antibody in serum (1:1000 dilution) was measured by ELISA. HRP-conjugated anti-mouse IgG was used as an ELISA secondary antibody.

[6] = system: MCF-10A cells; conditions: 0-50 µM, 72 h, trypan blue, Fig. S11
[7] = system: MDA-MB-231 cells; conditions: Biotin-M1-21 20 µM, 4 h, cytosol and nuclear protein samples, Western blotting
[8] = system: MDA-MB-231 cells; experiment: Wound Healing assay; conditions: MDA-MB-231, 10 µM for 36 h; versus M1-21mut; n = 3
[9] = system: MDA-MB-231 cells; experiment: Colony formation assay; conditions: MDA-MB-231, 200 cells/well, 20 µM, 14 days; versus M1-21mut
[10] = molecular target: FOXM1:LIN9 or FOXM1: B-MYB (Homo sapiens, UniProt Q08050); experiment: Co-IP in 231-Flag-FOXM1-Ind cells; conditions: 10, 20 µM for 6 h, dose-dependent
Chain of FOXM1:LIN9 or FOXM1: B-MYB (Q08050 1-748 isoform Q08050-2): as above

[11] = molecular target: interaction between FOXM1 and β-catenin (Homo sapiens, UniProt Q08050); experiment: Co-IP in 231-Flag-FOXM1-Ind cells; conditions: 10, 20 µM for 6 h
Chain of interaction between FOXM1 and β-catenin (Q08050 1-748 isoform Q08050-2): as above

[12] = system: spontaneous breast cancers; experiment: Spontaneous breast cancer FVB/N MMTV-PyVT mice
[13] = system: β-catenin; experiment: β-catenin levels in cytosol and nuclear protein samples; conditions: MDA-MB-231, 20 µM for 6 h; Western blotting
[14] = molecular target: truncated FOXM1 recombinant proteins tagged by GST (Homo sapiens, UniProt Q08050); experiment: Pulldown of GST-tagged truncated FOXM1 recombinant proteins; conditions: Biotin-M1-21 20 µM, recombinant protein 100 µg; Ponceau S
[15] = molecular target: truncated FOXM1 recombinant proteins tagged by GST (Homo sapiens, UniProt Q08050); experiment: as above; conditions: Biotin-M1-21 20 µM, recombinant protein 100 µg; Ponceau S; remark: listed apart in the source
[16] = molecular target: truncated FOXM1 recombinant proteins tagged by GST (Homo sapiens, UniProt Q08050); experiment: as above; conditions: Biotin-M1-21 20 µM, recombinant protein 100 µg; Ponceau S; remark: listed apart in the source
[17] = 20 mg/kg intraperitoneal once daily for 28 days, Day 29

Q: What does the source list for `CC[C@@H](C)[C@@H](NC(=O)[C@@H](CC(C)C)NC(=O)[C@H](NC(=O)[C@@H](CO)NC(=O)[C@@H](CS)NC(=O)CNC(=O)CNC(=O)[C@@H](C)NC(=O)[C@H]1CCCN1C(=O)[C@H](NC(=O)[C@@H](CCC(N)=O)NC(=O)[C@H]1CCCN1C(=O)[C@H]1CCCN1C(=O)CNC(=O)[C@@H](CC(C)C)NC(=O)[C@@H](CCCNC(=N)N)NC(=O)[C@H]1CCCN1C(=O)[C@@H](CCC(N)=O)NC(=O)[C@H](NC(=O)[C@H](N)CCC(N)=O)[C@H](C)O)[C@H](C)O)[C@H](C)CC)C(=O)N[C@H](Cc1ccccc1)C(=O)N[C@H](CCCNC(=N)N)C(=O)N[C@H](CCCNC(=N)N)C(=O)N[C@H](CCCNC(=N)N)C(=O)N[C@H](CCC(N)=O)C(=O)N[C@H](CCCNC(=N)N)C(=O)N[C@H](CCCNC(=N)N)C(=O)N[C@H](CCCCN)C(=O)N[C@H](CCCCN)C(=O)N[C@H](CCCNC(=N)N)C(=O)NCC(=O)O` [M1-21] (H-[dQ][dT][dQ][dP][dR][dL]G[dP][dP][dQ][dT][dP][dA]GG[dC][dS][dI][dL][dI][dF][dR][dR][dR][dQ][dR][dR][dK][dK][dR]G-OH; N-terminus and C-terminus assumed)?
A: binding to full-length FOXM1 in Pulldown [1]: bound; interaction between FOXM1 and PLK1 (Co-IP) [2]: disrupted the interaction; DNA binding ability of FOXM1 (EMSA) [3]: did not disturb; period of stay in the body (stability in mice) [4]: > 15 h; morphological lesions in heart, liver, spleen, lung, and kidney (H&E) [5]: no obvious morphological lesions; inhibition of normal breast epithelial cells, in words [6]: did not inhibit; distribution after entering cells [7]: distributed in cytoplasm and nucleus; cell migration [8]: inhibited; colony formation [9]: inhibitory effects; interaction of FOXM1:LIN9 or FOXM1: B-MYB (Co-IP) [10]: disrupted the interaction; interaction between FOXM1 and β-catenin (Co-IP) [11]: disrupted the interaction; mice with therapeutic benefit, of the seven treated [12, 17]: six mice had obvious therapeutic benefits and even one mouse was cancer-free; weight of total cancer tissue from each mouse [12, 17]: inhibited cancer progression; number of formed cancers ([12]; 20 mg/kg intraperitoneal once daily for 28 days, n = 7, versus PBS n = 4): dramatically decreased; levels of KI-67 and CDC25B in cancer sections (immunostaining) ([12]; 20 mg/kg once daily for 28 days): dramatically down-regulated; β-catenin levels in cytoplasm and nucleus [13]: elevated levels of β-catenin in the cytoplasm and declined levels of β-catenin in the nucleus; binding to GST-FOXM1_221-353 in Pulldown [14]: bound; binding to GST-FOXM1_688-748 in Pulldown [15]: bound; binding to GST-FOXM1_1-138 in Pulldown [16]: bound
